Values of other authors, collected in patent US10034966B2, “Coated vaso-occlusive device and methods for treatment of aneurysms” (Carnegie Mellon University, priority 2013, dated 2018).

Test system: L929 fibroblasts

COC(=O)C1=CO[C@@H](O)[C@@H]2C(CO)=CC[C@H]12 [genipin, methyl (1S,2R,6S)-2-hydroxy-9-(hydroxymethyl)-3-oxabicyclo[4.3.0]nona-4,8-diene-5-carboxylate]
cell death to L929 fibroblasts (exposures of 5 mM and 10 mM): can cause cell death
cytotoxicity, cell samples compared with controls (incubated in 1 mM): indistinguishable from controls
